BindingDB's records for doi:10.7270/Q2W957K6 (Pcmd, 2008)

Biological target: Coagulation factor XI (Homo sapiens, UniProt P03951)
Experiment: human FXIa inhibitor potency, dose response, biochemical (AID 679)

Chain of Coagulation factor XI (P03951 19-387 limits assumed): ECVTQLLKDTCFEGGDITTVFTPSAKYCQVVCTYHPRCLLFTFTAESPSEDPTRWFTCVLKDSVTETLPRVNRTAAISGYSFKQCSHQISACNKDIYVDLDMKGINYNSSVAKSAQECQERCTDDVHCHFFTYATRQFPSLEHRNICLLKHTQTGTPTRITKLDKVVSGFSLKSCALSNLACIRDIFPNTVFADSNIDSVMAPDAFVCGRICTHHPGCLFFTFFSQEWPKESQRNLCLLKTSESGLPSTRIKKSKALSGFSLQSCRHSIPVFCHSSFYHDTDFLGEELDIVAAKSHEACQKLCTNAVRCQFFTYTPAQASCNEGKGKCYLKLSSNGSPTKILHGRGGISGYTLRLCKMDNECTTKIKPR
Chain of Coagulation factor XI (P03951 388-625 limits assumed): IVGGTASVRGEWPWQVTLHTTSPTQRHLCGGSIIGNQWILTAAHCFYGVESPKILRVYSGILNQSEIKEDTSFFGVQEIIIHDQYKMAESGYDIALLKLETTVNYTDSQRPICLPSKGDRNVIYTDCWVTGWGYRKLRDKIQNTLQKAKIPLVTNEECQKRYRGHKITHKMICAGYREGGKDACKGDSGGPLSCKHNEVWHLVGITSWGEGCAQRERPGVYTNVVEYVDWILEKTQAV

| IC50 [µM] | SMILES |
| --- | --- |
| > 50 | Cc1ccccc1C(=O)N=c1sccn1C [2-methyl-N-(3-methyl-1,3-thiazol-2-ylidene)benzamide] |
| > 50 | N#Cc1cc2c(nc1SCC(=O)Nc1sc3c(c1C#N)CCC3)CCC2 |
| 0.638 | C=CCn1c(=O)c2c(nc(Br)n2Cc2ccccc2Cl)n(C)c1=O [MLS000555959] |
| > 50 | COC(=O)c1sc(NC(=O)CC(C)C)c(C(=O)OC)c1C [SMR000141040] |
| > 50 | COc1cc(OC)cc(-c2nnc(SCc3cccc(C(=O)O)c3)o2)c1 [3-[[5-(3,5-dimethoxyphenyl)-1,3,4-oxadiazol-2-yl]sulfanylmethyl]benzoic acid] |
| > 50 | O=C(c1cccc2ccccc12)n1nnc2ccccc21 [SMR000118701] |
| > 50 | O=C(CCSc1nnc2ccc3ccccc3n12)Nc1ccc(F)cc1 |
| > 50 | Cc1ccc(-c2csc(N3CCC(NS(=O)(=O)c4ccc5c(c4)OCCO5)CC3)n2)cc1 [N-[1-[4-(4-methylphenyl)-1,3-thiazol-2-yl]piperidin-4-yl]-2,3-dihydro-1,4-benzodioxine-6-sulfonamide] |

| SMILES | IC50 [µM] |
| --- | --- |
| CNCCCc1ccccc1 | > 50 |
